Measurements taken from patent publication US20150323548A1, “METHODS OF MONITORING THE MODULATION OF THE KINASE ACTIVITY OF FIBROBLAST GROWTH FACTOR RECEPTOR AND USES OF SAID METHODS” (Novartis AG, priority 2008, published 2015).
Marks after values point to notes of the source that are not given here.

Columns and labels:
FGF23 [1] = test: FGF23 ELISA in serum of wistar rats; assay type: in vivo, rat; conditions: 24 h post administration, p<0.01
Description: Data are presented as means of n=6, ±SD.
Animals. Experiments were performed in female wistar rats furth WF/Ico
The application volumes were 5 ml/kg.
Blood samples were drawn sublingually at 24 h post-compound administration. Plasma, as well as serum samples were prepared from each blood sample.

[2] = Rat mechanistic study: histopathology and tolerability; assay type: in vivo
[3] = test system: RT112/lucl xenograft tumors; test: Anti-tumor activity in RT112/lucl subcutaneous xenograft model in nude mice; assay type: in vivo, mouse; conditions: 14 days; for Regr. (%) / Δ body weight (% ± SEM) / Δ body weight (mean g ± SEM) / Δ tumor volume (mean mm^3 ± SEM): p.o., qd
Description: (§1) Animals. Experiments were performed in female HsdNpa: Athymic Nude-nu mice obtained from Laboratory Animal Services, Novartis Pharma AG, Basel, Switzerland. The animals were kept under OHC conditions in Makrolon type II cages (maximum of 10 animals/cage) with 12 hour dark, 12 hour light conditions (lights on: 6 AM, lights off: 6 PM). The animals were fed food and water ad libitum. Experiments were conducted under license number 1762 and license number 1763 approved by the Basel Cantonal Veterinary Office. All invasive procedures were performed under Forene anesthesia.
Establishment of RT112/lucl tumor xenograft model in nude mice. The parental RT-112 human urinary bladder transitional cell carcinoma cell line, which expressed high levels of wild type FGFR3, was initially derived from a patient with untreated primary urinary bladder carcinoma (histological grade G2, stage not recorded) in 1973 (Marshall et al., 1977, Masters et al., 1986). The original stock vial of RT112 cells used in this study was obtained from DSMZ ACC #418.
The cells were cultured in MEM medium supplemented with 10% Fetal Calf Serum, 1% sodium pyruvate and 1% L-glutamine. Cell culture reagents were purchased from BioConcept (Allschwil, Switzerland).
The parental RT112 cell line was infected with the retroviral expression vector pLNCX2/lucl and pools of G418 resistant cells were established and characterized for luciferase expression. The CMV driven expression of luciferase allows the detection of tumors using Xenogen IVIS™ cameras after injection of D-luciferin.
For the RT112/lucl model, treatments were initiated when the mean tumor volumes were approx. 180 mm^3 and mice were treated daily for 14 days. Body weights and tumor volumes were recorded twice a week. Tumor volumes were measured with calipers and determined according to the formula length×diameter^2×π/6.
(§2) Statistical analysis. When applicable, results are presented as mean±SEM. Tumor and body weight data were analyzed by ANOVA with post hoc Dunnett's test for comparison of treatment versus control group. The post hoc Tukey test was used for intra-group comparison. The level of significance of body weight change within a group between the start and the end of the experiment was determined using a paired t-test. Statistical analysis was performed using GraphPad prism 4.02 (GraphPad Software).
(§3) As a measure of anti-tumor efficacy, the % T/C value is calculated at a certain number of days after treatment start according to: (mean change of tumor volume treated animals/mean change tumor volume control animals)×100. When applicable, % regressions are calculated according to the formula (mean change tumor volume/mean initial tumor volume)×100.
(§4) Compound formulation and animal treatment. […] Vehicle consisted of PEG300/DSW. The application volumes were 10 ml/kg.

[4] = test system: NIH3T3/FGFR3^S249C subcutaneous tumors; test: Anti-tumor activity in subcutaneous NIH3T3/FGFR3^S249C tumor homograft model in nude mice; assay type: in vivo, mouse; conditions: p.o., qd, treatment day 8
Description: as §1
Establishment of NIH3T3/FGFR3^S249C tumor homograft model in nude mice. The NIH3T3/FGFR3^S249C model has been validated and characterized as a subcutaneous murine tumor model for the in vivo profiling of FGFR inhibitors. The parental NIH3T3 cell line was originally derived by immortalization of mouse embryonic fibroblasts. NIH3T3/FGFR3^S249C cells were generated by infection of parental NIH3T3 fibroblasts with a retroviral vector expressing FGFR3 with the activating mutation S249C. Pools of G418 resistant NIH3T3^S249C cells were established and characterized for FGFR3 expression and tyrosine phosphorylation. To generate homografts, 5×10^5 NIH3T3/FGFR3^S249C cells resuspended in PBS were injected subcutaneously in nude mice (0.2 ml/mouse).
Evaluation of anti-tumor activity. For the NIH3T3/FGFR3^S249C model, treatment was initiated when the average tumor volume reached approximately 100 mm^3. Tumor growth and body weights were monitored at regular intervals. The tumor sizes were measured manually with calipers. Tumor volume was estimated using the formula: (W×L×H×π/6), where width (W), length (L) and height (H) are the three largest diameters.
as §2, §3, §4

FGF23 [5] = test: FGF23 ELISA in plasma of nude mice bearing RT112/lucl xenografts; assay type: in vivo, mouse; conditions: 50 or 75 mg/kg/qd p.o., 14 days; two hours post-last dosing
Description: Data are presented as means±SD.
Tissue processing for ex vive analysis. At the end of the experiments, 2 hours after the last compound administrations, tumor samples and blood were collected.
Aliquots of 50 mg tumor powder were weighed, placed on ice and immediately resuspended at a ratio of 1:10 (w/v) in ice-chilled lysis buffer (50 mM Tris pH 7.5, 150 mM NaCl, 1 mM EGTA, 5 mM EDTA, 1% Triton, 2 mM NaVanadate, 1 mM PMSF and protease inhibitors cocktail Roche #11873580001). Lysis was allowed to proceed for 30 min on ice, lysates were clarified by centrifugation at 12000×g for 15 min and protein concentration was determined using DC protein assay reagents (Bio Rad #500-0116) and a BSA standard. Blood was collected from the vena cava with a 23 gauge needle into a 1 ml syringe containing 70 μl of a 1000 IU/ml heparin solution. Blood was then stored on ice for 30 min until centrifugation (10,000 g, 5 min) and then the plasma was collected.
FGF23 ELISA assay. […] Briefly, two specific murine monoclonal antibodies that bind to full-length FGF-23 are used: the first antibody is immobilized onto the microtiter plate well for capture and the second antibody is cojugated to HRP (horseradish peroxidase) for detection. In a first reaction, plasma or serum samples are added onto microtiter wells coated with the anti-FGF23 antibody to allow binding. […]

FGF23 [6] = test: FGF23 ELISA in plasma of dogs; assay type: in vivo, dog; conditions: plasma 1 hour after last administration

CCN1CCN(c2ccc(Nc3cc(N(C)C(=O)Nc4c(Cl)c(OC)cc(OC)c4Cl)ncn3)cc2)CC1 [COMPOUND A, 3-(2,6-Dichloro-3,5-dimethoxy-phenyl)-1-{6-[4-(4-ethyl-perpazin-1-yl)-phenylamino]-pyrimidin-4-yl}-1-methyl urea]
serum levels of FGF23 vs vehicle-treated group (FGF23 [1]; single oral 10 mg/kg): statistically significant increased in serum levels of FGF23
Bone remodeling events (histopathology) ([2]; 10 mg/kg/day 15 days + 4 days recovery, 20 mg/kg/day 3 days + 4 days recovery, 20 mg/kg/day 6 days): Signs of bone remodeling events were noted
Soft tissue/vascular mineralization (histopathology) ([2]; 10 mg/kg/qd groups): not observed
Body weight effect leading to premature termination ([2]; 20 mg/kg once daily p.o., after the 6th administration): severe body weight loss
Soft tissue/vascular mineralization (histopathology) ([2]; 20 mg/kg/day for 3 days after 4 recovery days, and after 6 days of treatment): Soft tissue/vascular mineralization was detected
Growth plate thickening (histopathology) ([2]; male rats, 10 and 20 mg/kg/day p.o., after three days of treatment): Growth plate thickening was detected
Regr. (%) ([3]; 50 mg/kg): 67%
Δ body weight (% ± SEM) ([3]; 50 mg/kg): 10.8 ± 4.1%
Δ body weight (mean g ± SEM) ([3]; 50 mg/kg): 2.6 ± 1.0 g
Δ tumor volume (mean mm^3 ± SEM) ([3]; 50 mg/kg): −120 ± 12* mm^3
Regr. (%) ([3]; 75 mg/kg): 74%
Δ body weight (% ± SEM) ([3]; 75 mg/kg): −4.0 ± 4.5%
Δ body weight (mean g ± SEM) ([3]; 75 mg/kg): -1.1 ± 1.1 g
Δ tumor volume (mean mm^3 ± SEM) ([3]; 75 mg/kg): −133 ± 13* mm^3
Tolerability of treatments ([3]; 50 and 75 mg/kg per day orally): well tolerated
T/C (%) ([4]; 10 mg/kg): 34%
Δ body weight (% ± SEM) ([4]; 10 mg/kg): 18.0 ± 3.2%
Δ body weight (mean g ± SEM) ([4]; 10 mg/kg): 4.2 ± 0.7 g
Δ tumor volume (mean mm^3 ± SEM) ([4]; 10 mg/kg): 1320 ± 245* mm^3
T/C (%) ([4]; 30 mg/kg): 4%
Δ body weight (% ± SEM) ([4]; 30 mg/kg): 7.0 ± 3.1 %
Δ body weight (mean g ± SEM) ([4]; 30 mg/kg): 1.6 ± 0.7 g
Δ tumor volume (mean mm^3 ± SEM) ([4]; 30 mg/kg): 156 ± 56* mm^3
Regr. (%) ([4]; 50 mg/kg): 40%
Δ body weight (% ± SEM) ([4]; 50 mg/kg): 4.6 ± 2.2 %
Δ body weight (mean g ± SEM) ([4]; 50 mg/kg): 1.1 ± 0.5 g
Δ tumor volume (mean mm^3 ± SEM) ([4]; 50 mg/kg): −43 ± 28* mm^3
Plasma levels of FGF23 vs vehicle-treated group (FGF23 [5]): increased plasma levels of FGF23
FGF-23 cont. (FGF23 [6]; group 2, 3 → 100 mg/kg/day p.o., animal # 453 (male)): 262.5 pg/mL
FGF-23 cont. (FGF23 [6]; group 2, 3 → 100 mg/kg/day p.o., animal # 454 (female)): 211.3 pg/mL
FGF-23 cont. (FGF23 [6]; group 3, 30 mg/kg/day p.o., 15 days, animal # 455 (male)): 534.3 pg/mL
FGF-23 cont. (FGF23 [6]; group 3, 30 mg/kg/day p.o., 15 days, animal # 456 (female)): 322.7 pg/mL
FGF-23 cont. (FGF23 [6]; group 4, 300 mg/kg/day p.o., 8 days, animal # 457 (male)): 824.6 pg/mL
FGF-23 cont. (FGF23 [6]; group 4, 300 mg/kg/day p.o., 8 days, animal # 458 (female)): 614.8 pg/mL

CCN(CC)CCCCNc1ncc2cc(-c3cc(OC)cc(OC)c3)c(NC(=O)NC(C)(C)C)nc2n1 [PD173074]
serum levels of FGF23 vs vehicle-treated group (FGF23 [1]; single oral 50 mg/kg): statistically significant increased in serum levels of FGF23
